# Key:
# [1] = target: Proto-oncogene tyrosine-protein kinase Src (Homo sapiens, UniProt P12931); assay: Inhibition of binding to Src SH2 domain
# Oryctolagus cuniculus = species: Oryctolagus cuniculus; assay: Ability to inhibit osteoclast mediated resorption of dentine in rabbit; format: functional
# Proto-oncogene tyrosine-protein kinase Src, sequence (P12931 2-536 limits assumed): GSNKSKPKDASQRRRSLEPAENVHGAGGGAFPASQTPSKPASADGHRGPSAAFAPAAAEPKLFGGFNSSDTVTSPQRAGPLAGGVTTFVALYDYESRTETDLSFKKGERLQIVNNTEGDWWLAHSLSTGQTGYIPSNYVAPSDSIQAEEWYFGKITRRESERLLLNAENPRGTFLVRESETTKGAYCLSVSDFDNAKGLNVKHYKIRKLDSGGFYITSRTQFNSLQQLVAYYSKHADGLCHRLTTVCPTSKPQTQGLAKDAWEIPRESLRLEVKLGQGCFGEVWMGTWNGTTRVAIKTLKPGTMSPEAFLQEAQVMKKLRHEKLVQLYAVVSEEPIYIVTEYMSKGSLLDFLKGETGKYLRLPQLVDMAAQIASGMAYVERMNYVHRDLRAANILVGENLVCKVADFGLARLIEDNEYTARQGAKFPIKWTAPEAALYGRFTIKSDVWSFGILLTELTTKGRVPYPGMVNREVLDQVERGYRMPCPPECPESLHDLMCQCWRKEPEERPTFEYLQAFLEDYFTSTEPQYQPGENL
smiles,measurement,setting,value
CC(=O)N[C@@H](Cc1ccc(CP(=O)(O)O)cc1)C(=O)N[C@@H](C)c1ccc(OCC2CCCCC2)c(C(N)=O)c1,IC50,[1],7.9 µM
CC(=O)N[C@@H](Cc1ccc(C(P(=O)(O)O)P(=O)(O)O)cc1)C(=O)N[C@@H](C)c1ccc(OCC2CCCCC2)c(C(N)=O)c1,IC50,[1],0.35 µM
same,IC50,Oryctolagus cuniculus,2000 nM

# — ChEMBL document CHEMBL1134353, “X-Ray structure of citrate bound to Src SH2 leads to a high-affinity, bone-targeted Src SH2 inhibitor” (J Med Chem, 2001)
